For 27 compounds, IC50 and DC50 results are on record in patent US20240308976A1, “COMPOUNDS THAT MEDIATE PROTEIN DEGRADATION AND USES THEREOF” (Monte Rosa Therapeutics, Inc., priority 2021, published 2024).

One experiment deals with CRBN-DDB1 (Homo sapiens, UniProt Q96SW2). Put plainly: Compound binding to CRBN by HTRF assay. The settings on record: CRBN-DDB1 2.5 nM, Cy5-Thalidomide 100 nM, 30 min at ambient temperature; read-out: HTRF Class (Cereblon binding, HTRF IC50). The gist of the method:
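Cy5-thalidomide (100 nM) displacement from His-tagged CRBN-DDB1 (2.5 nM) read by terbium-cryptate HTRF (665/620 nm), in 20 mM HEPES, 20 mM NaCl, 0.2 mM TCEP, 0.2 mM EDTA, 0.005% Tween20. Compounds tested as 10-point 1:3 series, 30 min at ambient temperature. Signal normalised to DMSO and lenalidomide controls; IC50 fitted, Ki by Cheng-Prusoff.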
(In general: Time-resolved FRET reads energy transfer from a long-lived donor to a nearby acceptor.)

For another experiment, the target named is T1, GSPT1 (Homo sapiens, UniProt P15170+Q96SW2).
T1 construct: CAL-51 cells were purchased from DSMZ (cat. Number ACC302); host or cells: CAL-51
T1 sequence (P15170 whole entry): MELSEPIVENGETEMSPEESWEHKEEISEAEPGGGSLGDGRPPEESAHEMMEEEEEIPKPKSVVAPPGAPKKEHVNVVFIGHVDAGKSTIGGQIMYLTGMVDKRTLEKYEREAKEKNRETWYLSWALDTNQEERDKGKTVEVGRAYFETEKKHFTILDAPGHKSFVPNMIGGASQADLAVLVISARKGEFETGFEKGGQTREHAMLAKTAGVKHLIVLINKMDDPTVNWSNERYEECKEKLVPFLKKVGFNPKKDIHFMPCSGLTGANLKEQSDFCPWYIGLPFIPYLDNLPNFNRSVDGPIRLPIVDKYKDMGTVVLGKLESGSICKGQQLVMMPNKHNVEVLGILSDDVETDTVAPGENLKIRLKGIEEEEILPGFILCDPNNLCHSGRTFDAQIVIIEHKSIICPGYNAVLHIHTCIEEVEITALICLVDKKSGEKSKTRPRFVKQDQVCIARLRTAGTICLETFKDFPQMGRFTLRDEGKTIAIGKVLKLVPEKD
T1 sequence (Q96SW2 whole entry): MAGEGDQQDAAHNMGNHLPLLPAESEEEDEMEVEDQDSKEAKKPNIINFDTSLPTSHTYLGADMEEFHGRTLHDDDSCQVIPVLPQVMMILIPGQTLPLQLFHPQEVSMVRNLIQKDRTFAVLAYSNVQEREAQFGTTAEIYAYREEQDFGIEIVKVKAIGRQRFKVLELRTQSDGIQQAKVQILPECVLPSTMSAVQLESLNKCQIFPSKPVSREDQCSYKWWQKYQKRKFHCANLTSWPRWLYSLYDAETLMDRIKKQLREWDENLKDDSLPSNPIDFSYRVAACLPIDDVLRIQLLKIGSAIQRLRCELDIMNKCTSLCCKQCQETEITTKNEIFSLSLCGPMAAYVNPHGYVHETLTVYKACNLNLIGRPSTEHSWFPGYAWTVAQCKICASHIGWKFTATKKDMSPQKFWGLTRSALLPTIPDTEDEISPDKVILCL
T1 sequence (Q16531 2-1140 partner limits assumed): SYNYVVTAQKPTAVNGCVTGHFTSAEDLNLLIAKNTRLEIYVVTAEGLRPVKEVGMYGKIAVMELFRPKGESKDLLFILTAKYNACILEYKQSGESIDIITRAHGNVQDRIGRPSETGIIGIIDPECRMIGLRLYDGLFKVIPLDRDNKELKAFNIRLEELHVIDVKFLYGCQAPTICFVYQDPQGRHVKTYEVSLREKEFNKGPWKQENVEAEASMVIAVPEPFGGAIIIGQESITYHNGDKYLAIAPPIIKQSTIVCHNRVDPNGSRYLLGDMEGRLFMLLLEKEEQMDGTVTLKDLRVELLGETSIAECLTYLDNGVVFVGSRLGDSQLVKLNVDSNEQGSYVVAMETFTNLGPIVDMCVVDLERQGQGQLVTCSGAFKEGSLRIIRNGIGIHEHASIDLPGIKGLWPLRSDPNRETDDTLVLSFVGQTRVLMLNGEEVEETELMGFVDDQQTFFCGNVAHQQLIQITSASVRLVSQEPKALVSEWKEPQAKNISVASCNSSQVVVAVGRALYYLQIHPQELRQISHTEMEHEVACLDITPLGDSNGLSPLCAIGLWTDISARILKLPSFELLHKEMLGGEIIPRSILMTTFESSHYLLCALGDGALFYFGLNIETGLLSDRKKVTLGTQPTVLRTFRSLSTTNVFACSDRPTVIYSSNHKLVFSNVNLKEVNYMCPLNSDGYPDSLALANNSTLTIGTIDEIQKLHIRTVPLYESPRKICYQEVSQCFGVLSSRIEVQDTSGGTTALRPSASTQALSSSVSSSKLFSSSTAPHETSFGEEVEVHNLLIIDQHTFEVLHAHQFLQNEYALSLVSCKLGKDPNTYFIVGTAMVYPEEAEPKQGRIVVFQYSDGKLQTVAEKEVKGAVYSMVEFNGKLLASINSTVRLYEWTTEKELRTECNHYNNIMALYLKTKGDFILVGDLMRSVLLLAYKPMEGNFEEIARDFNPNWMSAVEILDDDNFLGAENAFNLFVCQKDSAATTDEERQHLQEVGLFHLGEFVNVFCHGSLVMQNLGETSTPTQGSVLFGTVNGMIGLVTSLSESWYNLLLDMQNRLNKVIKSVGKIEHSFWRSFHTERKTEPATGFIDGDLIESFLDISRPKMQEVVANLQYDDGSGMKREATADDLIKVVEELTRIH
Put plainly: Immunofluorescence assay for activity to degrade GSPT1 in CAL-51 cells. The experiment is classed as cell-based. The settings on record: 6 h treatment, read-out: IF Class (GSPT1 degradation, DC50). The gist of the method:
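CAL-51 cells treated 6 h with compound (30 μM to 0.1 nM), fixed, immunostained for GSPT1 with DAPI and phalloidin counterstains, imaged by high-content microscopy. Mean per-cell GSPT1 intensity normalized to controls; DC50 by non-linear regression.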

CRBN-DDB1, sequence (Q96SW2 whole entry): as the sequence (Q96SW2 whole entry) above
CRBN-DDB1, sequence (Q16531 whole entry partner): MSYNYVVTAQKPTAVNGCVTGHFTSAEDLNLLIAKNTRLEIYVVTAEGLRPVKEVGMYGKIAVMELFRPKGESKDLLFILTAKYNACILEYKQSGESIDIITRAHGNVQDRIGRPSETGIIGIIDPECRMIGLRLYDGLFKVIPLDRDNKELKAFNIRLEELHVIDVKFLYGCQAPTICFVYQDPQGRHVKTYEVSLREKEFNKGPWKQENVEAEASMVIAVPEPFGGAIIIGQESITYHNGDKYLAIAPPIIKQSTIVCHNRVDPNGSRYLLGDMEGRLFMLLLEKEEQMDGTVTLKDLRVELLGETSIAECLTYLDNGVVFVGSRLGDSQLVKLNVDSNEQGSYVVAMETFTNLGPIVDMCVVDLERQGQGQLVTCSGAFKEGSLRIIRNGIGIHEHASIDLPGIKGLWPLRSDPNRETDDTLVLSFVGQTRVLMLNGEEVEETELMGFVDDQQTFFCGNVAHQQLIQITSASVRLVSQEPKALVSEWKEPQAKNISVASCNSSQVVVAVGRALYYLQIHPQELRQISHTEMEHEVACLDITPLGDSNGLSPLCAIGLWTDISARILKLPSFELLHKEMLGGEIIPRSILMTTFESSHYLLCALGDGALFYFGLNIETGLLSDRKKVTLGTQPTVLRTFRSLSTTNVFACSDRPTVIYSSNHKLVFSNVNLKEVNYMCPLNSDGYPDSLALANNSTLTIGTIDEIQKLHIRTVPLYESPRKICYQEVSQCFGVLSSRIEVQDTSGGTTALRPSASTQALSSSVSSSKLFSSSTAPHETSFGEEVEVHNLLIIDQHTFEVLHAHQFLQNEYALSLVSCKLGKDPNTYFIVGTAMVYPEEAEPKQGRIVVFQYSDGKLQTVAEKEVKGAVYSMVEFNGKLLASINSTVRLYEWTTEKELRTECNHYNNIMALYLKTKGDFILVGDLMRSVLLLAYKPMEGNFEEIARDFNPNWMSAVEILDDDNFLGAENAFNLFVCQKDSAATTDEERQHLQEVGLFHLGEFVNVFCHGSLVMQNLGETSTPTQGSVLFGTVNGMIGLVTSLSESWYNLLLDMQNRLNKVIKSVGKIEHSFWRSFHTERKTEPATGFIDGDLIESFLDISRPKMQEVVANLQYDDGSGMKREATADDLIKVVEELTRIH

Take `O=C1CCC(c2c(F)cc(N3CC(OC(=O)Nc4ccc(F)c(OC(F)F)c4)C3)cc2F)C(=O)N1` (stereo not drawn) [Compound 32, 1-(4-(2,6-dioxopiperidin-3-yl)-3,5-difluorophenyl)azetidin-3-yl (3-(difluoromethoxy)-4-fluorophenyl)carbamate]: on CRBN-DDB1, the IC50 (as a rule, the concentration that gives 50% inhibition) lay in the range of 100 to 1000 nM. In addition, the DC50 (in general, the midpoint of the concentration-degradation curve) at GSPT1 is at most 30 nM.

Take `O=C1CCC(c2c(F)cc(N3CC(OC(=O)Nc4cc(OC(F)(F)F)ccc4F)C3)cc2F)C(=O)N1` (stereo not drawn) [Compound 33, 1-(4-(2,6-dioxopiperidin-3-yl)-3,5-difluorophenyl)azetidin-3-yl (2-fluoro-5-(trifluoromethoxy)phenyl)carbamate]: at CRBN-DDB1, the 50% inhibitory concentration (IC50) lay in the range of 100 to 1000 nM. Besides, at GSPT1, the DC50 is at most 30 nM.

As for `O=C1CCC(c2c(F)cc(N3CC(OC(=O)Nc4cc(F)cc(Cl)c4)C3)cc2F)C(=O)N1` (stereo not drawn) [Compound 34, 1-(4-(2,6-dioxopiperidin-3-yl)-3,5-difluorophenyl)azetidin-3-yl(3-chloro-5-fluorophenyl)carbamate], the IC50 on CRBN-DDB1 was in the range of 100 to 1000 nM. For the same compound, the DC50 on GSPT1 lay in the range of 30 to 300 nM.

With `Cc1cc(C)cc(NC(=O)NC2CN(c3ccc(C4CCC(=O)NC4=O)c(Cl)c3)C2)c1` (stereo not drawn) [Compound 35, 1-(1-(3-chloro-4-(2,6-dioxopiperidin-3-yl)phenyl)azetidin-3-yl)-3-(3,5-dimethylphenyl)urea], the IC50 at CRBN-DDB1 is 100 to 1000 nM. Also, at GSPT1, the DC50 was above 300 nM.

As to `O=C1CCC(c2ccc(N3CC(OC(=O)Nc4cccc(OC(F)(F)F)c4)C3)cc2Cl)C(=O)N1` (stereo not drawn) [Compound 36, 1-(3-chloro-4-(2,6-dioxopiperidin-3-yl)phenyl)azetidin-3-yl (3-(trifluoromethoxy)phenyl)carbamate], the IC50 on CRBN-DDB1 was above 1000 nM. For the same compound, at GSPT1, the DC50 lay in the range of 30 to 300 nM.

As to `O=C1CCC(c2c(F)cc(N3CC(OC(=O)Nc4cccc(OC5CC5)c4)C3)cc2F)C(=O)N1` (stereo not drawn) [Compound 37, 1-(4-(2,6-dioxopiperidin-3-yl)-3,5-difluorophenyl)azetidin-3-yl (3-cyclopropoxyphenyl)carbamate], on CRBN-DDB1, the IC50 fell in the range of 100 to 1000 nM. Moreover, at GSPT1, the DC50 is at most 30 nM.

For the compound `O=C1CCC(c2c(F)cc(N3CC(OC(=O)Nc4cc(Cl)cc(OC(F)F)c4)C3)cc2F)C(=O)N1` (stereo not drawn) [Compound 38, 1-(4-(2,6-dioxopiperidin-3-yl)-3,5-difluorophenyl)azetidin-3-yl(3-chloro-5-(difluoromethoxy)phenyl) carbamate], the IC50 on CRBN-DDB1 lay in the range of 100 to 1000 nM. In addition, at GSPT1, the DC50 fell in the range of 30 to 300 nM.

As for `Cc1cc(NC(=O)OC2CN(c3cc(F)c(C4CCC(=O)NC4=O)c(F)c3)C2)c(F)cc1Cl` (stereo not drawn) [Compound 39, 1-(4-(2,6-dioxopiperidin-3-yl)-3,5-difluorophenyl)azetidin-3-yl(4-chloro-2-fluoro-5-methylphenyl)carbamate], at CRBN-DDB1, the IC50 lay in the range of 100 to 1000 nM. Also, the DC50 at GSPT1 was at most 30 nM.

In the case of `CC1(c2ccc(NC(=O)NC3CN(c4cc(F)c(C5CCC(=O)NC5=O)c(F)c4)C3)cn2)CC1` (stereo not drawn) [Compound 40, 1-(1-(4-(2,6-dioxopiperidin-3-yl)-3,5-difluorophenyl)azetidin-3-yl)-3-(6-(1-methylcyclopropyl)pyridin-3-yl)urea], the IC50 on CRBN-DDB1 is 100 to 1000 nM. The DC50 on GSPT1 was at most 30 nM.

On to `O=C1CCC(c2ccc(N3CC(NC(=O)Nc4cccc(OC(F)(F)F)c4)C3)cc2Cl)C(=O)N1` (stereo not drawn) [Compound 41, 1-(1-(3-chloro-4-(2,6-dioxopiperidin-3-yl)phenyl)azetidin-3-yl)-3-(3-(trifluoromethoxy)phenyl)urea], for which the IC50 on CRBN-DDB1 fell in the range of 100 to 1000 nM. The DC50 at GSPT1 was above 300 nM.

Consider `Cc1ccc(NC(=O)NC2CN(c3ccc(C4CCC(=O)NC4=O)c(Cl)c3)C2)cc1Cl` (stereo not drawn) [Compound 42, 1-(1-(3-chloro-4-(2,6-dioxopiperidin-3-yl)phenyl)azetidin-3-yl)-3-(3-chloro-4-methylphenyl)urea], for which the 50% inhibitory concentration (IC50) on CRBN-DDB1 was in the range of 100 to 1000 nM. On GSPT1, the DC50 was 30 to 300 nM.

For the compound `CC1(c2ccc(NC(=O)OC3CN(c4cc(F)c(C5CCC(=O)NC5=O)c(F)c4)C3)cn2)CC1` (stereo not drawn) [Compound 43, 1-(4-(2,6-dioxopiperidin-3-yl)-3,5-difluorophenyl)azetidin-3-yl(6-(1-methylcyclopropyl)pyridin-3-yl) carbamate], the IC50 at CRBN-DDB1 fell in the range of 100 to 1000 nM. Besides, at GSPT1, the 50% degradation concentration (DC50) is at most 30 nM.

As to `O=C1CCC(c2c(F)cc(N3CC(OC(=O)Nc4cc(F)cc(OC(F)F)c4)C3)cc2F)C(=O)N1` (stereo not drawn) [Compound 44, 1-(4-(2,6-dioxopiperidin-3-yl)-3,5-difluorophenyl)azetidin-3-yl (3-(difluoromethoxy)-5-fluorophenyl)carbamate], the IC50 at CRBN-DDB1 fell in the range of 100 to 1000 nM. Further, the DC50 on GSPT1 lay in the range of 30 to 300 nM.

Regarding `O=C1CCC(c2c(F)cc(N3CC(OC(=O)Nc4ccc(-c5ccccn5)cc4)C3)cc2F)C(=O)N1` (stereo not drawn) [Compound 45, 1-(4-(2,6-dioxopiperidin-3-yl)-3,5-difluorophenyl)azetidin-3-yl (4-(pyridin-2-yl)phenyl)carbamate], the IC50 at CRBN-DDB1 was in the range of 100 to 1000 nM. Also, the DC50 at GSPT1 was at most 30 nM.

As for `COc1c(N2CC(OC(=O)Nc3ccc(C)c(Cl)c3)C2)cc(F)c(C2CCC(=O)NC2=O)c1F` (stereo not drawn) [Compound 46, 1-(4-(2,6-dioxopiperidin-3-yl)-3,5-difluoro-2-methoxyphenyl)azetidin-3-yl (3-chloro-4-methylphenyl) carbamate], the half-inhibitory concentration (IC50) at CRBN-DDB1 was in the range of 100 to 1000 nM. Further, the DC50 at GSPT1 fell in the range of 30 to 300 nM.

`N#Cc1cc(Cl)cc(NC(=O)OC2CN(c3cc(F)c(C4CCC(=O)NC4=O)c(F)c3)C2)c1` (stereo not drawn) [Compound 47, 1-(4-(2,6-dioxopiperidin-3-yl)-3,5-difluorophenyl)azetidin-3-yl(3-chloro-5-cyanophenyl)carbamate]: at CRBN-DDB1, the IC50 was 100 to 1000 nM. For the same compound, the 50% degradation concentration (DC50) at GSPT1 was 30 to 300 nM.

With `Cc1cc(NC(=O)OC2CN(c3cc(F)c(C4CCC(=O)NC4=O)c(F)c3)C2)cc(C)c1C#N` (stereo not drawn) [Compound 48, 1-(4-(2,6-dioxopiperidin-3-yl)-3,5-difluorophenyl)azetidin-3-yl (4-cyano-3,5-dimethylphenyl) carbamate], the IC50 on CRBN-DDB1 was in the range of 100 to 1000 nM. At GSPT1, the DC50 was at most 30 nM.

`Cc1cc(C#N)cc(NC(=O)OC2CN(c3cc(F)c(C4CCC(=O)NC4=O)c(F)c3)C2)c1` (stereo not drawn) [Compound 49, 1-(4-(2,6-dioxopiperidin-3-yl)-3,5-difluorophenyl)azetidin-3-yl (3-cyano-5-methylphenyl) carbamate]: at CRBN-DDB1, the IC50 fell in the range of 100 to 1000 nM. Moreover, the DC50 at GSPT1 was 30 to 300 nM.

As for `O=C1CCC(c2c(F)cc(N3CC(NC(=O)Nc4cc(F)cc(OC(F)(F)F)c4)C3)cc2F)C(=O)N1` (stereo not drawn) [Compound 50, 1-(1-(4-(2,6-dioxopiperidin-3-yl)-3,5-difluorophenyl)azetidin-3-yl)-3-(3-fluoro-5-(trifluoromethoxy)phenyl)urea], on CRBN-DDB1, the IC50 was 100 to 1000 nM. For the same compound, the DC50 on GSPT1 lay within 30 to 300 nM.

Regarding `O=C1CCC(c2c(F)cc(N3CC(OC(=O)Nc4cnc(-c5ccccc5)nc4)C3)cc2F)C(=O)N1` (stereo not drawn) [Compound 51, 1-(4-(2,6-dioxopiperidin-3-yl)-3,5-difluorophenyl)azetidin-3-yl(2-phenylpyrimidin-5-yl)carbamate], the IC50 at CRBN-DDB1 was 100 to 1000 nM. For the same compound, the DC50 on GSPT1 was at most 30 nM.

On to `Cc1c(Cl)cc(NC(=O)OC2CN(c3cc(F)c(C4CCC(=O)NC4=O)c(F)c3)C2)cc1OCCN1CCOCC1` (stereo not drawn) [Compound 52, 1-(4-(2,6-dioxopiperidin-3-yl)-3,5-difluorophenyl)azetidin-3-yl(3-chloro-4-methyl-5-(2-morpholinoethoxy)phenyl)carbamate], for which the half-maximal inhibitory concentration (IC50) at CRBN-DDB1 fell in the range of 100 to 1000 nM. Moreover, at GSPT1, the half-maximal degradation concentration (DC50) was at most 30 nM.

As for `Cc1c(Cl)cc(NC(=O)OC2CN(c3cc(F)c(C4CCC(=O)NC4=O)c(F)c3)C2)cc1C#N` (stereo not drawn) [Compound 53, 1-(4-(2,6-dioxopiperidin-3-yl)-3,5-difluorophenyl)azetidin-3-yl(3-chloro-5-cyano-4-methylphenyl) carbamate], on CRBN-DDB1, the 50% inhibitory concentration (IC50) fell in the range of 100 to 1000 nM. Also, the DC50 on GSPT1 was 30 to 300 nM.

`Cc1ccc(NC(=O)OC2CN(c3ccc(C4CCC(=O)NC4=O)c(Cl)c3F)C2)cc1Cl` (stereo not drawn) [Compound 54, 1-(3-chloro-4-(2,6-dioxopiperidin-3-yl)-2-fluorophenyl)azetidin-3-yl(3-chloro-4-methylphenyl)carbamate]: the IC50 at CRBN-DDB1 is above 1000 nM. Moreover, the DC50 on GSPT1 is 30 to 300 nM.

`Cc1ccc(NC(=O)OC2CN(c3ccc(C4CCC(=O)NC4=O)cc3)C2)cc1Cl` (stereo not drawn) [Compound 55, 1-(4-(2,6-dioxopiperidin-3-yl)phenyl)azetidin-3-yl (3-chloro-4-methylphenyl)carbamate]: the IC50 on CRBN-DDB1 is above 1000 nM. In addition, the DC50 on GSPT1 lay within 30 to 300 nM.

Turning to `COc1cc(C2CCC(=O)NC2=O)c(Cl)cc1N1CC(OC(=O)Nc2ccc(C)c(Cl)c2)C1` (stereo not drawn) [Compound 56, 1-(5-chloro-4-(2,6-dioxopiperidin-3-yl)-2-methoxyphenyl)azetidin-3-yl (3-chloro-4-methylphenyl)carbamate], at CRBN-DDB1, the IC50 is above 1000 nM. In addition, on GSPT1, the DC50 lay in the range of 30 to 300 nM.

Take `Cc1ccc(NC(=O)OC2CN(c3ccc(C4CCC(=O)NC4=O)c(C#N)c3)C2)cc1Cl` (stereo not drawn) [Compound 57, 1-(3-cyano-4-(2,6-dioxopiperidin-3-yl)phenyl)azetidin-3-yl(3-chloro-4-methylphenyl)carbamate]: the IC50 at CRBN-DDB1 was above 1000 nM. In addition, the DC50 on GSPT1 fell in the range of 30 to 300 nM.

Turning to `CC1(c2ccc(NC(=O)OC3CN(c4cc(F)c(C5CCC(=O)NC5=O)c(F)c4)C3)cc2)CC1` (stereo not drawn) [Compound 58, 1-(4-(2,6-dioxopiperidin-3-yl)-3,5-difluorophenyl)azetidin-3-yl (4-(1-methylcyclopropyl)phenyl)carbamate], the IC50 on CRBN-DDB1 lay in the range of 100 to 1000 nM. Further, on GSPT1, the DC50 lay in the range of 30 to 300 nM.
